Values of other authors as cited in patent publication US10413538B2, “Administration of karenitecin for the treatment of platinum and/or taxane chemotherapy-resistant or -refractory advanced ovarian cancer” (priority 2013, dated 2019).

Tests used:
[1] = human, in vivo; cited from earlier work
[2] = tested on: resistant subline of cells containing less than 4% of the topoisomerase I activity; details: subline with <4% topoisomerase I activity; cited from earlier work
MDR-expressing sublines = details: P-glycoprotein-associated MDR phenotype; cited from earlier work

| SMILES | resistance of MDR-expressing sublines relative to parental wild-type cells (MDR-expressing sublines) [fold] | also measured |
| --- | --- | --- |
| Nc1ccn([C@@H]2O[C@H](CO)[C@@H](O)C2(F)F)c(=O)n1 [Gemcitabine] |  | patients with neutropenia [1]: up to 90% |
| CC[C@@]1(O)C(=O)OCc2c1cc1n(c2=O)Cc2cc3ccccc3nc2-1 [camptothecin] |  | decrease in sensitivity of resistant subline versus wild-type parental cells [2]: 1000 fold |
| COc1cccc2c1C(=O)c1c(O)c3c(c(O)c1C2=O)C[C@@](O)(C(=O)CO)C[C@@H]3O[C@H]1C[C@H](N)[C@H](O)[C@H](C)O1 [doxorubicin] | 200 |  |
| COc1cc([C@@H]2c3cc4c(cc3[C@@H](O[C@@H]3O[C@@H]5CO[C@@H](C)O[C@H]5[C@H](O)[C@H]3O)[C@H]3COC(=O)[C@H]23)OCO4)cc(OC)c1O [etoposide] | 200 |  |
